The values below come from patent publication US11033506B2, “External skin preparation comprising a core-shell structure” (SEKISUI CHEMICAL CO., LTD., priority 2017, dated 2021).

This data set is described as follows: Octanol/water partition coefficient. The conditions noted are these: Log10 (octanol phase/aqueous phase), aqueous buffer solution of pH 7. The format is physicochemical. From the text:
Specifically, the octanol/water partition coefficient can be determined by calculation using an equation: Octanol/water partition coefficient=Log10 (concentration in an octanol phase/concentration in an aqueous phase).

The structures appear in SMILES notation.

`O=C(O)c1cc(/N=N/c2ccc(S(=O)(=O)Nc3ccccn3)cc2)ccc1O` [sulfasalazine]: the octanol/water partition coefficient was found to be 2.3. As to `O=C1CCc2ccc(OCCCCN3CCN(c4cccc(Cl)c4Cl)CC3)cc2N1` [aripiprazole], the octanol/water partition coefficient stood at 4.5. In addition, the log distribution coefficient (logD) (octanol/aqueous buffer solution (pH 7)) worked out at 4.5.

In general, logD refers to lipophilicity at a set pH, counting ionised and neutral species.
